Assay results taken from the supplement of paper PMC10307832.

Assays:
Experiment in all cases: relative viability (nuclei count vs DMSO), 5 days (fraction); higher = more cells survive
[1] = compound: Cn1cc(-c2cnn3c(N)c(Br)c([C@@H]4CCCNC4)nc23)cn1 + CCNC(=O)c1noc(-c2cc(C(C)C)c(O)cc2O)c1-c1ccc(CN2CCOCC2)cc1 [Luminespib] (partner 0.01 µM)
Summary of the method: (§1)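 Lung cancer cell lines in 1536-well plates were dosed by pin tool the day after seeding, either with one drug alone or with a fixed anchor-drug dose plus five library-drug doses (not always all listed) in √10 steps. After 5 days, cells were fixed and their nuclei stained in one step (final 0.05% Triton X-100, 1% formaldehyde, 1 ug/ml Hoechst), then counted on 4× images. Relative viability is the nuclei count in treated wells divided by that in vehicle wells. Values are medians of duplicate plates.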

[2] = compound: Cn1cc(-c2cnn3c(N)c(Br)c([C@@H]4CCCNC4)nc23)cn1 + CC(=O)c1c(C)c2cnc(Nc3ccc(N4CCNCC4)cn3)nc2n(C2CCCC2)c1=O [Palbociclib] (partner 0.5 µM)
Summary of the method: as §1

[3] = compound: Cn1cc(-c2cnn3c(N)c(Br)c([C@@H]4CCCNC4)nc23)cn1 + CS(=O)(=O)N1CCN(Cc2cc3nc(-c4cccc5[nH]ncc45)nc(N4CCOCC4)c3s2)CC1 [Pictilisib] (partner 1 µM)
Summary of the method: as §1

[4] = compound: Cn1cc(-c2cnn3c(N)c(Br)c([C@@H]4CCCNC4)nc23)cn1 + COc1cccc2cc(-c3nc([C@H]4CC[C@H](C(=O)O)CC4)n4ncnc(N)c34)[nH]c12 [OSI-027] (partner 0.5 µM)
Summary of the method: as §1

Cell Line	relative viability ([1]; first compound 0.05 µM)	relative viability ([1]; first compound 0.1581 µM)	relative viability ([1]; first compound 0.5 µM)	relative viability ([1]; first compound 1.581 µM)	relative viability ([1]; first compound 5 µM)	relative viability ([2]; first compound 0.05 µM)	relative viability ([2]; first compound 0.1581 µM)	relative viability ([2]; first compound 0.5 µM)	relative viability ([2]; first compound 1.581 µM)	relative viability ([2]; first compound 5 µM)	relative viability ([3]; first compound 0.05 µM)	relative viability ([3]; first compound 0.1581 µM)	relative viability ([3]; first compound 0.5 µM)	relative viability ([3]; first compound 1.581 µM)	relative viability ([3]; first compound 5 µM)	relative viability ([4]; first compound 0.05 µM)	relative viability ([4]; first compound 0.1581 µM)	relative viability ([4]; first compound 0.5 µM)	relative viability ([4]; first compound 1.581 µM)	relative viability ([4]; first compound 5 µM)
LCLC-97TM1	0.874	0.844	0.743	0.654	0.777	0.248	0.236	0.242	0.242	0.178	0.16	0.149	0.26	0.152	0.143	0.459	0.558	0.545	0.391	0.487
HARA	0.752	0.706	0.631	0.376	0.16	0.246	0.264	0.322	0.299	0.158	0.463	0.345	0.372	0.438	0.207	0.469	0.606	0.685	0.408	0.149
HCC-78						0.445	0.391	0.532	0.439	0.488	0.245	0.246	0.11	0.155	0.154		0.347	0.345	0.354	0.517
NCI-H1666	0.971	1.02	0.906	0.958	0.917	0.674	0.654	0.649	0.615	0.618	0.657	0.429	0.338	0.464	0.413	0.827	0.966	0.913	0.812	0.66
NCI-H2347	0.506	0.677	0.473	0.409	0.297	0.41	0.442	0.421	0.39	0.43	0.77	0.63	0.759	0.264	0.57	0.418	0.594	0.291	0.377	0.326
NCI-H838	0.346	0.252	0.261	0.225	0.222	0.238	0.228	0.211	0.178	0.224	0.365	0.501	0.416	0.264	0.488	0.386	0.416	0.371	0.367	0.338
NCI-H2023	0.873	0.305	0.234	0.167	0.123	0.341	0.335	0.191	0.18	0.128	0.268	0.226	0.194	0.143	0.11	0.438	0.342	0.269	0.159	0.13
201T	1.05	1.17	1.06	0.988	0.83	0.362	0.373	0.34	0.322	0.363	0.644	0.621	0.704	0.613	0.573	0.777		0.656	0.532	0.241
NCI-H1915	0.987	0.86	0.722	0.667	0.695	0.591	0.562	0.522	0.508	0.543	0.933	0.942	0.948	0.896	0.9	0.646	0.631	0.566	0.543	0.561
NCI-H2009	1.04	1.09	0.98	0.962	0.889	0.237	0.177	0.185	0.18	0.113	0.712	0.873	0.714	0.517	0.552	0.681	0.709	0.534	0.515	0.422
BEN	0.305	0.463	0.311	0.332	0.337	0.501	0.489	0.497	0.459	0.53	0.628	0.575	0.498	0.496	0.417	0.481	0.288	0.251	0.572	0.295
PC-14	0.179		0.179	0.159	0.165	0.614	0.358	0.269	0.156	0.121	0.73	0.685	0.558	0.504	0.248	1.02	0.83	0.638	0.248	0.206
SK-MES-1	0.651	0.406	0.419	0.24	0.187	0.315	0.327	0.308	0.273	0.238	0.333	0.395	0.336	0.288	0.216	0.621	0.562	0.416	0.244	0.16
NCI-H727	0.345	0.412	0.315	0.354	0.343	0.646	0.686	0.589	0.581	0.642	0.411	0.354	0.604	0.276	0.22	0.551	0.761	0.719	0.711	0.429
NCI-H1355	0.691	0.662	0.699	0.609	0.735	0.371	0.425	0.397	0.385	0.382	0.402	0.474	0.467	0.408	0.342	0.442	0.469	0.416	0.372	0.328
NCI-H1975	0.105	0.197	0.256	0.139	0.167	0.654	0.58	0.476	0.449	0.27	0.308	0.264	0.308	0.222	0.248	0.895	0.72	0.706	0.554	0.654
